In US20080241208A1, “Methods, Compositions and Devices For Promoting Anglogenesis” (priority 2005, published 2008):

Tests used:
HUVECs = assay: In-vitro angiogenesis model: network formation in collagen gel matrix; type: cell-based; settings: pulsed with PMA, bFGF and NOC18 (10-9) for 2 hr followed by PMA, bFGF and VEGF-C for 70 hr; AngioQuant; FIG. 3
Text: FIG. 4 depicts network formation in HUVECs cultured in collagen gel matrix and treated with PMA, bFGF, and VEGF-C for 72 hr (Positive control). […] Image on left of each figure is stained with phalloidin (cytoskeletal Actin-F marker) and the nuclear dye, Hoechst. Image on right depicts network formation (red lines) used by AngioQuant quantification program (Niemiströ et al 2005). Magnification=4×. The number of networks is 48 in FIG. 3, 44 in FIG. 4, 12 in FIG. 5.

Rabbits = assay: In-vivo angiogenesis rabbit subcutaneous implant studies
Text: Rabbits were implanted subcutaneously with nitric oxide generating agent dibenzo[e,k]-2,3,8,9-tetramethyl-1,4,7,10-tetraaza-cyclododeca-1,3,7,9-tetraene, cyclen and plain polymer disks.

Row | Compound | number of networks (HUVECs) | blood vessel formation around disks (Rabbits; explants sectioned and stained with H&E, 20× magnification) | angiogenic activity versus control (Rabbits; subcutaneous polymer disk explants at 28 d and 8 weeks)
1 | NCCN(CCN)/[N+]([O-])=N/O [NOC18] | 48 | – | –
2 | CC1=C(C)N=c2ccccc2=NC(C)=C(C)N=c2ccccc2=N1 [dibenzo[e,k]-2,3,8,9-tetramethyl-1,4,7,10-tetraaza-cyclododeca-1,3,7,9-tetraene] | – | increased blood vessel formation | increased angiogenic activity
